These are literature values, as cited in EP0759941B1, “HETERODIMER POLYPEPTIDEIMMUNOGEN CARRIER COMPOSITION AND METHOD FOR THEIR USE” (S.P.I. SYNTHETIC PEPTIDES INCORPORATED, priority 1994, dated 1995).

This series deals with primed (human) donors. The note with it: recognized by all primed (human) donors; cited from earlier work.

On to “TT3: tetanus toxoid residues 947-967; SEQ ID NO:14 (FNNFTVSFWLRVPKVSASHLE; UniProt P04958 947-967, looked up, fragment)”, for which the “immunogenicity (recognition by primed donors irrespective of MHC haplotypes)” value is on record as “universally immunogenic”. In the case of “TT2: tetanus toxoid residues 830-846; SEQ ID NO:12; T-cell antigen (QYIKANSKFIGITELKK; UniProt P04958 830-846, looked up, fragment) [tetanus toxoid residues 830-846; T-cell antigen]”, the “immunogenicity (recognition by primed donors irrespective of MHC haplotypes)” value was “universally immunogenic”.
